# Assays:
# NCI-H460 = assay: NCI SRB assay; format: cell-based, human
# SF-295 = assay: NCI SRB assay; format: cell-based, human
# HCT-116 = assay: NCI SRB assay; format: cell-based, human
# HOP-92 = assay: NCI SRB assay; format: cell-based, human
# CAKI-1 = assay: NCI SRB assay; format: cell-based, human
# NCI-H226 = assay: NCI SRB assay; format: cell-based, human
# NCI-H322M = assay: NCI SRB assay; format: cell-based, human
# MDA-MB-468 = assay: NCI SRB assay; format: cell-based, human
# SK-MEL-2 = assay: NCI SRB assay; format: cell-based, human
# KM12 = assay: NCI SRB assay; format: cell-based, human
# NCI/ADR-RES = assay: NCI SRB assay; format: cell-based, human
# COLO 205 = assay: NCI SRB assay; format: cell-based, human
# MOLT-4 = assay: NCI SRB assay; format: cell-based, human
# SK-OV-3 = assay: NCI SRB assay; format: cell-based, human
# PC-3 = assay: NCI SRB assay; format: cell-based, human
# UACC-62 = assay: NCI SRB assay; format: cell-based, human
# SN12C = assay: NCI SRB assay; format: cell-based, human; details: SN12C
# HL-60(TB) = assay: NCI SRB assay; format: cell-based, human; details: HL-60(TB)
# LOX IMVI = assay: NCI SRB assay; format: cell-based, human
# hCA II = biological target: T1, hCA II (Homo sapiens, UniProt P00918); assay: stopped flow CO2 hydrase assay; format: biochemical; details: mean from 3 assays
# T1 construct: made in house
# Procedure: Carbonic anhydrase inhibition assay
# The carbonic anhydrase catalyzed CO2 hydration actions for the quinazoline-based carboxylic acid derivatives (6a-c, 7a-c and 8a-c) were assayed utilizing an instrument of Applied Photophysics stopped-flow, as described previously. The enzymes are recombinant proteins prepared in our lab. Phenol red (at a concentration of 0.2 mM) has been used as indicator, working at the absorbance maximum of 557 nm, with 20 mM Hepes (pH 7.5) as buffer, and 20 mM Na2SO4 (for maintaining constant the ionic strength), following the initial rates of the CA- […]
# 1.7 to 17 mM for the determination of the kinetic parameters and inhibition constants. For each inhibitor at least six traces of the initial 5-10% of the reaction have been used for determining the initial velocity. The uncatalyzed rates were determined in the same manner and subtracted from the total observed rates. Stock solutions of inhibitor (0.1 mM) were prepared in distilled-deionized water and dilutions up to 0.01 nM were done thereafter with the assay buffer. Inhibitor and enzyme solutions were preincubated together for 15 min at room temperature prior to assay, in order to allow for the formation of the E-I complex. The inhibition constants were obtained by non-linear least-squares methods using PRISM 3 and the Cheng-Prusoff equation, and represent the mean from at least three different determinations.
# TK-10 = assay: NCI SRB assay; format: cell-based, human
# [1] = system: 59 human cancer cell lines representing nine tumour subpanels; assay: NCI SRB assay, panel and subpanel summaries; details: all cell lines
# EKVX = assay: NCI SRB assay; format: cell-based, human
# SNB-19 = assay: NCI SRB assay; format: cell-based, human
# SNB-75 = assay: NCI SRB assay; format: cell-based, human
# SW-620 = assay: NCI SRB assay; format: cell-based, human
structure (smiles),measurement,setting,value
"Cc1ccc(-c2nc(Nc3ccc(C(=O)O)cc3)c3ccccc3n2)cc1 [8b, 4-((2-(p-Tolyl)quinazolin-4-yl)amino)benzoic acid]",GI%,"NCI-H460; NCI-H460, 10 μM",– (Only GI% higher than 20% are shown)
same,Growth Percent,"NCI-H460; NCI-H460, 1.00E-5 Molar",82.06%
same,GI%,"SF-295; SF-295, 10 μM",42%
same,Growth Percent,"SF-295; SF-295, 1.00E-5 Molar",57.85%
same,GI%,"HCT-116; HCT-116, 10 μM",22%
same,Growth Percent,"HCT-116; HCT-116, 1.00E-5 Molar",77.19%
same,GI%,"HOP-92; HOP-92, 10 μM",25%
same,Growth Percent,"HOP-92; HOP-92, 1.00E-5 Molar",75.22%
same,GI%,"CAKI-1; CAKI-1, 10 μM",– (Only GI% higher than 20% are shown)
same,Growth Percent,"CAKI-1; CAKI-1, 1.00E-5 Molar",88.42%
same,GI%,"NCI-H226; NCI-H226, 10 μM",62%
same,Growth Percent,"NCI-H226; NCI-H226, 1.00E-5 Molar",37.77%
same,GI%,NCI-H322M; 10 μM,– (Only GI% higher than 20% are shown)
same,Growth Percent,NCI-H322M; 1.00E-5 Molar,84.20%
same,GI%,"MDA-MB-468; MDA-MB-468, 10 μM",– (Only GI% higher than 20% are shown)
same,Growth Percent,"MDA-MB-468; MDA-MB-468, 1.00E-5 Molar",108.74%
same,GI%,"SK-MEL-2; SK-MEL-2, 10 μM",– (Only GI% higher than 20% are shown)
same,Growth Percent,"SK-MEL-2; SK-MEL-2, 1.00E-5 Molar",113.45%
same,GI%,"KM12; KM12, 10 μM",42%
same,Growth Percent,"KM12; KM12, 1.00E-5 Molar",57.97%
same,GI%,NCI/ADR-RES; 10 μM,24%
same,Growth Percent,NCI/ADR-RES; 1.00E-5 Molar,76.55%
same,GI%,"COLO 205; COLO 205, 10 μM",– (Only GI% higher than 20% are shown)
same,Growth Percent,"COLO 205; COLO 205, 1.00E-5 Molar",109.50%
same,GI%,"MOLT-4; MOLT-4, 10 μM",24%
same,Growth Percent,"MOLT-4; MOLT-4, 1.00E-5 Molar",76.42%
same,GI%,"SK-OV-3; SK-OV-3, 10 μM",– (Only GI% higher than 20% are shown)
same,Growth Percent,"SK-OV-3; SK-OV-3, 1.00E-5 Molar",99.63%
same,GI%,"PC-3; PC-3, 10 μM",23%
same,Growth Percent,"PC-3; PC-3, 1.00E-5 Molar",77.04%
same,GI%,"UACC-62; UACC-62, 10 μM",– (Only GI% higher than 20% are shown)
same,Growth Percent,"UACC-62; UACC-62, 1.00E-5 Molar",95.83%
same,GI%,SN12C; 10 μM,51%
same,Growth Percent,SN12C; 1.00E-5 Molar,48.99%
same,GI%,HL-60(TB); 10 μM,24%
same,Growth Percent,HL-60(TB); 1.00E-5 Molar,76.30%
same,GI%,LOX IMVI; 10 μM,43%
same,Growth Percent,LOX IMVI; 1.00E-5 Molar,57.05%
same,Ki,hCA II,3.9 µM
same,GI%,"TK-10; TK-10, 10 μM",– (Only GI% higher than 20% are shown)
same,Growth Percent,"TK-10; TK-10, 1.00E-5 Molar",113.38%
same,Mean GI %,[1]; 10 μM,20%
same,Mean Growth Percent,[1]; 1.00E-5 Molar,80.19%
same,GI%,EKVX; 10 μM,28%
same,Growth Percent,EKVX; 1.00E-5 Molar,72.41%
same,GI%,"SNB-19; SNB-19, 10 μM",29%
same,Growth Percent,"SNB-19; SNB-19, 1.00E-5 Molar",70.92%
same,GI%,"SNB-75; SNB-75, 10 μM",– (Only GI% higher than 20% are shown)
same,Growth Percent,"SNB-75; SNB-75, 1.00E-5 Molar",95.80%
same,GI%,"SW-620; SW-620, 10 μM",– (Only GI% higher than 20% are shown)
same,Growth Percent,"SW-620; SW-620, 1.00E-5 Molar",91.47%
